In PubChem BioAssay AID1259407 (Chemical Carcinogenesis Research Information System (CCRIS), 2018):
The source made the active and inactive calls. How the calls were made is not given here.

Tested on: CCRIS mutagenicity, Ames/micronucleus/aberration tests
Test: CCRIS mutagenicity studies
[1] = Test System: AMES SALMONELLA TYPHIMURIUM, Strain/Indicator: TA98, Metabolic Activation: NONE, Method: STANDARD PLATE
[2] = Test System: AMES SALMONELLA TYPHIMURIUM, Strain/Indicator: TA98, Metabolic Activation: RAT, LIVER, S-9, AROCLOR 1254, Method: STANDARD PLATE
[3] = Test System: AMES SALMONELLA TYPHIMURIUM, Strain/Indicator: TA100, Metabolic Activation: NONE, Method: STANDARD PLATE

Compound: CCOc1ccc(N(O)C(C)=O)cc1
- mutagenic call (End Point: IN VITRO MICRONUCLEUS, Test System: RAT KIDNEY FIBROBLAST NRK-49F, Metabolic Activation: NONE): active; positive
- mutagenic call (Test System: AMES SALMONELLA TYPHIMURIUM, Strain/Indicator: TA100, Metabolic Activation: HAMSTER, LIVER, S-9, AROCLOR 1254, Method: LIQUID SUSPENSION): active; positive
- mutagenic call (Test System: AMES SALMONELLA TYPHIMURIUM, Strain/Indicator: TA100, Metabolic Activation: HAMSTER, LIVER, S-9, KANECHLOR 400 (WITHOUT NADPH GENERATING SYSTEM), Method: PREINCUBATION): active; positive
- mutagenic call (Test System: AMES SALMONELLA TYPHIMURIUM, Strain/Indicator: TA100, Metabolic Activation: NONE, Method: PREINCUBATION): inactive; negative
- mutagenic call (Test System: AMES SALMONELLA TYPHIMURIUM, Strain/Indicator: TA100, Metabolic Activation: RAT, LIVER, S-9, PCB, Method: LIQUID SUSPENSION): active; positive

Compound: O=c1c(Cl)c(Cl)cnn1S(=O)(=O)c1ccc(Cl)cc1Cl
- mutagenic call [1]: inactive; negative
- mutagenic call [2]: inactive; negative
- mutagenic call [3]: inactive; negative
- mutagenic call (Test System: AMES SALMONELLA TYPHIMURIUM, Strain/Indicator: TA100, Metabolic Activation: RAT, LIVER, S-9, AROCLOR 1254, Method: STANDARD PLATE): inactive; negative
- mutagenic call (Test System: AMES SALMONELLA TYPHIMURIUM, Strain/Indicator: TA1535, Metabolic Activation: NONE, Method: STANDARD PLATE): inactive; negative
- mutagenic call (Test System: AMES SALMONELLA TYPHIMURIUM, Strain/Indicator: TA1535, Metabolic Activation: RAT, LIVER, S-9, AROCLOR 1254, Method: STANDARD PLATE): inactive; negative
- mutagenic call (Test System: AMES SALMONELLA TYPHIMURIUM, Strain/Indicator: TA1537, Metabolic Activation: NONE, Method: STANDARD PLATE): inactive; negative
- mutagenic call (Test System: AMES SALMONELLA TYPHIMURIUM, Strain/Indicator: TA1537, Metabolic Activation: RAT, LIVER, S-9, AROCLOR 1254, Method: STANDARD PLATE): inactive; negative

Compound: O=[N+]([O-])c1ccc2c3c4c(cccc4c4ccccc4c13)[C@H](O)[C@H]2O
- mutagenic call (Test System: AMES SALMONELLA TYPHIMURIUM, Strain/Indicator: TA98(1,8-DNP6), Metabolic Activation: NONE, Method: STANDARD PLATE): active; positive
- mutagenic call (Test System: AMES SALMONELLA TYPHIMURIUM, Strain/Indicator: TA98(1,8-DNP6), Metabolic Activation: RAT, LIVER, S-9, AROCLOR 1254, Method: STANDARD PLATE): active; positive
- mutagenic call (Test System: AMES SALMONELLA TYPHIMURIUM, Strain/Indicator: TA98(NR), Metabolic Activation: NONE, Method: STANDARD PLATE): active; positive
- mutagenic call (Test System: AMES SALMONELLA TYPHIMURIUM, Strain/Indicator: TA98(NR), Metabolic Activation: RAT, LIVER, S-9, AROCLOR 1254, Method: STANDARD PLATE): active; positive
- mutagenic call [1]: active; positive
- mutagenic call [2]: active; positive

Compound: OCc1cccc2c1-c1cccc3cccc-2c13
- mutagenic call [1]: inactive; negative
- mutagenic call [3]: inactive; negative

Compound: C=C1C[C@@]23CC[C@H]4[C@@](C)(CCC[C@@]4(C)C(=O)O)[C@@H]2CC[C@]1(O[C@@H]1O[C@H](CO)[C@@H](O)[C@H](O)[C@H]1O[C@@H]1O[C@H](CO)[C@@H](O)[C@H](O)[C@H]1O)C3
- mutagenic call (Test System: AMES SALMONELLA TYPHIMURIUM, Strain/Indicator: TM677, Metabolic Activation: RAT, LIVER, S-9, AROCLOR 1254, Method: PREINCUBATION): inactive; negative

Compound: Oc1ccc2c3ccccc3c3cc4ccccc4cc3c2c1O
- mutagenic call (Test System: AMES SALMONELLA TYPHIMURIUM, Strain/Indicator: TA100, Metabolic Activation: RAT, LIVER, S-9, AROCLOR 1254, Method: PREINCUBATION): active; positive

Compound: CC(C)c1ccc(/C=C/c2ccc([N+](=O)[O-])cc2)cc1
- mutagenic call [1]: inactive; negative
- mutagenic call (Test System: AMES SALMONELLA TYPHIMURIUM, Strain/Indicator: TA98, Metabolic Activation: RAT, LIVER, S-9, AROCLOR, Method: STANDARD PLATE): active; positive
- mutagenic call [3]: inactive; negative
- mutagenic call (Test System: AMES SALMONELLA TYPHIMURIUM, Strain/Indicator: TA100, Metabolic Activation: RAT, LIVER, S-9, AROCLOR, Method: STANDARD PLATE): active; positive

Compound: CC(=O)Nc1cc2c(cc1OC(C)=O)-c1ccccc1C2
- mutagenic call [2]: inactive; negative
